Data from article PMC8053125 (2021).

Assays:
[1] = test system: A (CFX aptamer A) (RNA, aptamer) GGGAGACGCAACAGACUAGGUUGUGACUGCUUAGGCAGUUGUGGACGGCUAAGCCCACCAGAGGUCCGUAACUAGUCGCGUCAC; test: stopped-flow fluorescence, global fit; details: K+ 125 mM, Mg2+ 5 mM; 40 mM HEPES, pH 7.4; association rate, reversible two-step model 4; k-1 1.6±0.2, k2 4±0.2, k-2 2.3±0.2 s^-1
[2] = test system: RS (RNA, aptamer) GGGAGACGCACCUGAAUCAACAUACGUGAACGCGACUCUAUCUCCCCAAAUUAGGCGUCAGAUAGCGGCACGGAGUUACACGAUCCGUAACUAGUCGCGUCAC; test: stopped-flow fluorescence, global fit; details: K+ 125 mM, Mg2+ 5 mM; 40 mM HEPES, pH 7.4; association rate, two-step model 5; k-1 2.9±0.7, k2 23±1 s^-1
[3] = test system: preRS (RNA, aptamer) GGGAGACGCAACUGAAUGAACAUAAGUGAACGCGACUCUAUCUCCCUAAACUAGGAGUCAUAUAGCGGCACGGAGUUACACGAUCCGUAACUAGUCGCGUCAC; test: stopped-flow fluorescence, global fit; details: K+ 125 mM, Mg2+ 5 mM; 40 mM HEPES, pH 7.4; association rate, two-step model 5; k-1 5.4±0.4, k2 12.1±0.7 s^-1
[4] = test system: A (CFX aptamer A) (RNA, aptamer) GGGAGACGCAACAGACUAGGUUGUGACUGCUUAGGCAGUUGUGGACGGCUAAGCCCACCAGAGGUCCGUAACUAGUCGCGUCAC; test: fluorescence titration (ligand quenching); details: K+ 125 mM, Mg2+ 10 mM; 40 mM HEPES, pH 7.4, 25 °C; 50 nM CFX; Mg2+ series

SMILES: O=C(O)c1cn(C2CC2)c2cc(N3CCNCC3)c(F)cc2c1=O
- k1 [1]: 10 ± 0.2 µM/s
- k1 [2]: 7.62 ± 0.11 µM/s
- k1 [3]: 4.31 ± 0.06 µM/s
- KD [4]: ~ 13 nM
